Earlier results, collected in patent US6846837B2, “Topical administration of basic antifungal compositions to treat fungal infections of the nails” (priority 2002, dated 2005).

Legend:
onychomycosis = conditions: standard oral treatment
[1] = not given; remark: listed apart in the source
[2] = forms Ca(OH)2

CN(C/C=C/C#CC(C)(C)C)Cc1cccc2ccccc12 [terbinafine]
disease-free nails, share of cases (onychomycosis): 35-50%

O=P([O-])([O-])O.[K+].[K+] [Potassium phosphate, dibasic]
pH of Aqueous Solution, in words (alkalinity): Aqueous solution is slightly alkaline

O=B[O-].[Na+] [Sodium metaborate]
pH of Aqueous Solution, in words (alkalinity): Strongly alkaline

CC(C)CCN [Isopentylamine]
pKa [1]: pKa = 10.6

CNC [Dimethylamine]
pKa [1]: 10.73

CN(C)C [Trimethylamine]
pKa [1]: 9.81

[O]=[Ca] [Calcium oxide]
solubility in water [2]: Soluble in water, Form Ca(OH)2
